Reference: the supplement of paper PMC8149375

Assays:
Conditions in all cases: treatment: drug alone; 5 days
CAKI-1 [1] = test: AUC of dose-response viability curve, drug alone (arbitrary (AUC of normalised viability)); higher = less growth inhibition
Description: (§1)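 Primary HTS: 8 RCC cell lines treated with 8 doses (up to 10 uM) of each library drug alone for 5 days; viability read by CellTiter-Glo and normalised to DMSO. GI50 was fitted with XLfit (4-parameter), AUC is the area under the dose-response curve, and minimum viability is the lowest fraction of DMSO viability across doses.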

UO-31 [2] = test: as above
Description: as §1

A498 [3] = test: as above
Description: as §1

769-P [4] = test: as above
Description: as §1

ACHN [5] = test: as above
Description: as §1

TK-10 [6] = test: as above
Description: as §1

SN12C [7] = test: as above
Description: as §1

786-O [8] = test: as above
Description: as §1

CAKI-1 [9] = test: GI50, drug alone; higher = less potent
Description: as §1

UO-31 [10] = test: GI50, drug alone; higher = less potent
Description: as §1

A498 [11] = test: GI50, drug alone; higher = less potent
Description: as §1

769-P [12] = test: GI50, drug alone; higher = less potent
Description: as §1

ACHN [13] = test: GI50, drug alone; higher = less potent
Description: as §1

TK-10 [14] = test: GI50, drug alone; higher = less potent
Description: as §1

SN12C [15] = test: GI50, drug alone; higher = less potent
Description: as §1

786-O [16] = test: GI50, drug alone; higher = less potent
Description: as §1

CAKI-1 [17] = test: minimum viability across doses, drug alone, relative to DMSO (fraction); higher = less growth inhibition
Description: as §1

UO-31 [18] = test: as above
Description: as §1

A498 [19] = test: as above
Description: as §1

769-P [20] = test: as above
Description: as §1

ACHN [21] = test: as above
Description: as §1

TK-10 [22] = test: as above
Description: as §1

SN12C [23] = test: as above
Description: as §1

786-O [24] = test: as above
Description: as §1

SMILES | AUC of dose-response viability curve (CAKI-1 [1]) | AUC of dose-response viability curve (UO-31 [2]) | AUC of dose-response viability curve (A498 [3]) | AUC of dose-response viability curve (769-P [4]) | AUC of dose-response viability curve (ACHN [5]) | AUC of dose-response viability curve (TK-10 [6]) | AUC of dose-response viability curve (SN12C [7]) | AUC of dose-response viability curve (786-O [8]) | GI50, drug alone (CAKI-1 [9]) [nM] | GI50, drug alone (UO-31 [10]) [nM] | GI50, drug alone (A498 [11]) [nM] | GI50, drug alone (769-P [12]) [nM] | GI50, drug alone (ACHN [13]) [nM] | GI50, drug alone (TK-10 [14]) [nM] | GI50, drug alone (SN12C [15]) [nM] | GI50, drug alone (786-O [16]) [nM] | minimum viability across doses (CAKI-1 [17]) | minimum viability across doses (UO-31 [18]) | minimum viability across doses (A498 [19]) | minimum viability across doses (769-P [20]) | minimum viability across doses (ACHN [21]) | minimum viability across doses (TK-10 [22]) | minimum viability across doses (SN12C [23]) | minimum viability across doses (786-O [24])
Clc1ccc(C2(c3ccc(-c4cn[nH]c4)cc3)CCNCC2)cc1 [AT7867] | 2.8 | 2.21 | 3.49 | 3.02 | 2.89 | 2.84 | 3.13 | 2.05 | 4090 | 249 | 7630 | 6560 | 2570 | 3730 | 5460 | 1110 | 0.155 | 0.00617 | 0.263 | 0.338 | 0.0705 | 0.0799 | 0.212 | 0.00712
O=C(Nc1c[nH]nc1-c1nc2cc(CN3CCOCC3)ccc2[nH]1)NC1CC1 [AT9283] | 2.22 | 2.05 | 2.74 | 1.97 | 1.86 | 2.1 | 2.63 | 1.58 | 414 | 250 | 777 | 241 | 344 | 456 | 1100 | 100 | 0.0418 | 0.00945 | 0.0125 | 0.0255 | 0.0159 | 0.0596 | 0.00789 | 0.00681
Cc1ccc(NC(=O)c2cccc(C(C)(C)C#N)c2)cc1Nc1ccc2ncn(C)c(=O)c2c1 [AZ628] | 3.16 | 3.37 | 3.97 | 3.42 | 2.84 | 2.48 | 3.3 | 3.21 | 4380 | 4500 | > 10000 | > 10000 | 2710 | 4670 | > 10000 | > 10000 | 0.239 | 0.101 | 0.928 | 0.706 | 0.276 | 0.425 | 0.572 | 0.719
Cc1cc(Nc2nc(N[C@@H](C)c3ccc(F)cc3)c(C#N)cc2F)n[nH]1 [AZ 960] | 2.15 | 2.52 | 2.86 | 2.51 | 2.48 | 2.44 | 2.5 | 1.57 | 628 | 789 | 3300 | 1230 | 1070 | 1840 | 1680 | 259 | 0.0231 | 0.00541 | 0.391 | 0.0819 | 0.129 | 0.133 | 0.252 | 0.00178
CNC(=O)c1cccc(-c2ccc3c(N4CCOC[C@@H]4C)nc(N4CCOC[C@@H]4C)nc3n2)c1 [AZD2014] | 1.86 | 1.88 | 2.91 | 2.29 | 1.61 | 1.67 | 2.12 | 1.18 | 246 | 135 | 936 | 573 | 120 | 145 | 364 | 23.6 | 0.0604 | 0.0166 | 0.229 | 0.0959 | 0.0767 | 0.108 | 0.177 | 0.0673
COc1cc(CCc2cc(NC(=O)c3ccc(N4C[C@@H](C)N[C@@H](C)C4)cc3)n[nH]2)cc(OC)c1 [AZD4547] | 2.59 | 5.09 | 3.96 | 3.57 | 2.69 | 3.11 | 3.1 | 3.17 | 1600 | 9970 | > 10000 | > 10000 | 2380 | 9570 | 5180 | 7220 | 0.222 | 0.68 | 0.877 | 0.9 | 0.165 | 0.51 | 0.256 | 0.202
Cc1ncc(-c2ccnc(Nc3ccc(S(C)(=O)=O)cc3)n2)n1C(C)C [AZD5438] | 2.97 | 2.19 | 2.44 | 2.6 | 2.39 | 2.49 | 2.45 | 1.66 | 1640 | 258 | 1230 | 910 | 654 | 759 | 1480 | 186 | 0.131 | 0.00721 | 0.00858 | 0.0207 | 0.0146 | 0.142 | 0.0183 | 0.00317
Cn1cnc2c(F)c(Nc3ccc(Br)cc3Cl)c(C(=O)NOCCO)cc21 [AZD6244 (Selumetinib)] | 2.51 | 4 | 3.06 | 2.75 | 2.59 | 2.45 | 2.88 | 2.41 | 1660 | > 10000 | > 10000 | 3950 | 3000 | 3050 | > 10000 | 1140 | 0.23 | 0.728 | 0.59 | 0.381 | 0.371 | 0.419 | 0.664 | 0.371
NC(=O)Nc1cc(-c2cccc(F)c2)sc1C(=O)N[C@H]1CCCNC1 [AZD7762] | 1.78 | 2.1 | 2.53 | 1.82 | 0.873 | 1.39 | 2.07 | 1.1 | 156 | 81.8 | 308 | 175 | 17.3 | 68.5 | 408 | 34 | 0.00629 | 0.00565 | 0.0492 | 0.0526 | 0.0318 | 0.0208 | 0.00737 | 0.00636
COc1ccc(-c2ccc3c(N4CCOC[C@@H]4C)nc(N4CCOC[C@@H]4C)nc3n2)cc1CO [AZD8055] | 1.48 | 1.29 | 2.4 | 1.76 | 1.25 | 1.48 | 1.62 | 0.809 | 119 | 69.1 | 370 | 171 | 41.5 | 85.1 | 110 | 9.59 | 0.0607 | 0.00497 | 0.229 | 0.109 | 0.0903 | 0.0959 | 0.163 | 0.00631
Cc1cc(C(=O)NOCCO)c(Nc2ccc(I)cc2F)n(C)c1=O [AZD8330] | 1.73 | 3.95 | 3.63 | 2.04 | 1.69 | 1.74 | 2.36 | 1.78 | 134 | > 10000 | > 10000 | 385 | 140 | 123 | 865 | 57.3 | 0.209 | 0.527 | 0.789 | 0.281 | 0.299 | 0.317 | 0.386 | 0.31
CNC(=O)CN1CCC(Oc2cc3c(Nc4cccc(Cl)c4F)ncnc3cc2OC)CC1 [AZD8931] | 2.86 | 3.56 | 4.39 | 2.32 | 2.08 | 2.35 | 3.06 | 2.67 | > 10000 | > 10000 | > 10000 | 1150 | 609 | 1210 | > 10000 | > 10000 | 0.576 | 0.785 | 0.994 | 0.336 | 0.323 | 0.333 | 0.696 | 0.474
CN(C)C/C=C/C(=O)Nc1cc2c(Nc3ccc(F)c(Cl)c3)ncnc2cc1O[C@H]1CCOC1 [Afatinib (BIBW2992)] | 2.18 | 3.72 | 2.87 | 1.94 | 1.71 | 1.73 | 2.37 | 2.26 | 673 | 2610 | 2860 | 298 | 162 | 157 | 1340 | 1460 | 0.047 | 0.00799 | 0.00814 | 0.0284 | 0.000546 | 0.0844 | 0.0794 | 0.00665
S=C(NCc1ccc2c(c1)OCO2)N1CCN(c2ncnc3c2oc2ccccc23)CC1 [Amuvatinib (MP-470)] | 3.74 | 3.73 | 3.63 | 3.25 | 2.87 | 2.82 | 2.63 | 2.22 | > 10000 | 2680 | 3140 | > 10000 | 2630 | 4830 | 1560 | 686 | 0.832 | 0.0651 | 0.103 | 0.527 | 0.113 | 0.28 | 0.0586 | 0.104
S=C(NCc1ccc2c(c1)OCO2)N1CCN(c2ncnc3c2oc2ccccc23)CC1 [Amuvatinib (MP-470)_R2] | 3.34 | 3.43 | 3.12 | 3.38 | 2.69 | 2.19 | 2.51 | 1.54 | > 10000 | 2570 | 4190 | > 10000 | 2420 | 2270 | 1560 | 8.25 | 0.749 | 0.0813 | 0.131 | 0.578 | 0.151 | 0.198 | 0.0284 | 0.0372
CS(=O)(=O)O.N#CC1(c2ccc(NC(=O)c3cccnc3NCc3ccncc3)cc2)CCCC1 [Apatinib (YN968D1)] | 2.93 | 5.2 | 4.78 | 3.53 | 3.21 | 2.84 | 3.39 | 3.23 | > 10000 | 8330 | > 10000 | > 10000 | > 10000 | > 10000 | > 10000 | > 10000 | 0.666 | 0.126 | 1.02 | 0.901 | 0.676 | 0.739 | 0.799 | 0.648
O=C1C(=O)N(Cc2ccc(Cl)c(Cl)c2)c2ccccc21 [Apoptosis Activator 2] | 3.53 | 4.31 | 4.06 | 3.51 | 2.87 | 2.82 | 2.93 | 1.07 | 7680 | > 10000 | > 10000 | > 10000 | 6950 | 8150 | 4980 | > 10000 | 0.342 | 0.818 | 0.506 | 0.654 | 0.339 | 0.439 | 0.193 | 0.00355
CCN1CCN(C(=O)Cc2ccc(Nc3ncc(F)c(Nc4ccc(C(=O)Nc5ccccc5Cl)cc4)n3)cc2)CC1 [Aurora A Inhibitor I] | 2.49 | 3.82 | 4.05 | 2.75 | 2.17 | 2.7 | 2.95 | 1.75 | 980 | 9230 | > 10000 | 2030 | 557 | 4410 | 5340 | 234 | 0.00638 | 0.327 | 0.871 | 0.0238 | 0.062 | 0.481 | 0.465 | 0.0582
